Measured values from patent publication US11649326B2, “Functional, segregated, charged telodendrimers and nanocarriers and methods of making and using same” (The Research Foundation for the State University of New York, priority 2015, dated 2023).

Tested on: HT-29 cells
Assay: Cellular uptake of FITC-BSA by CLSM in HT-29 cells
Type: cell-based
Conditions: 37° C., 3 h, P/T ratio 1/3 by weight
Experimental: Cellular Uptake of Protein-Loaded Telodendrimer Nanoparticles. Green fluorescent FITC-BSA molecules were used to probe the intracellular trafficking of proteins without and with telodendrimer nanoparticles. HT-29 colon cancer cells were incubated with free FITC-BSA and FITC-BSA-loaded telodendrimer nanoparticles, and were imaged by confocal laser scanning microscopy (CLSM). […] Only a small amount of the FITC-BSA molecules loaded in the nanoparticles of the telodendrimers containing four guanidine groups at a P/T ratio of 1/3 by weight could be delivered to the cellular interiors (green fluorescence in FIG. 6b). […] The poor intracellular protein delivery efficiency of the telodendrimers containing four guanidine groups may restrict their applications for intracellular delivery, however, this endows them with the potential to serve as nanocarriers for systemic delivery of proteins such as insulin. […]
Cellular Uptake. The cellular uptake and intracellular trafficking of the protein-incorporated nanoparticles were determined by fluorescence microscopy. […] The slides were mounted with cover slips and cells were imaged with a […] FV1000 laser scanning confocal fluorescence microscope.

FITC-BSA: Fluorescein isothiocyanate (FITC) labeled bovine serum albumin, fluorescent model protein
cellular uptake of FITC-BSA: could hardly enter the cells spontaneously
